Patent US8158647B2, “Substituted pyrrolopyridines and pyrazolopyridines as kinase modulators” (SGX Pharmaceuticals, Inc., priority 2007, dated 2012)

Target: T1, purified and unphosphorylated T315I Abl kinase domain (ABL_T315I_0P) (Mus musculus, UniProt P00520, T315I)
T1 construct: The c-Abl T3151 KD (kinase domain) was purified as follows; Met-Ser-Leu (vector-derived residues) (N); made in house; host or cells: E. coli BL21(DE3) strains (Codon+RIL, or pSA0145 for the lambda phosphatase co-expression plasmid)
T1 sequence (P00520 242-493 T315I limits assumed): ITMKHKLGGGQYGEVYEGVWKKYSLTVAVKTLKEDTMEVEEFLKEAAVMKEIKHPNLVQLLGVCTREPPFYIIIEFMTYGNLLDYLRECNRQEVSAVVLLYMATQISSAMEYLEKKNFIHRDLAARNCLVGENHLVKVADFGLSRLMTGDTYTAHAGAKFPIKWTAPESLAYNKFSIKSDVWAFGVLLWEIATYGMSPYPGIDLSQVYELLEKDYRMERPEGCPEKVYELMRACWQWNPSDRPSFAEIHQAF
Experiment: c-Abl T315I (unphosphorylated kinase domain) pyruvate kinase/lactate dehydrogenase coupled enzyme assay
Assay type: biochemical
Conditions: 10 μM ATP
From the text: Although the first of these examples uses the kinase domain of a mutant form of Abl T315I (“Abl T315I KD”), the kinase assays may use various forms of mutant and wild type enzymes, including, for example, the entire protein, the kinase domain, or a portion thereof (e.g. Abl Y393F). The kinases used in the assays may also be of varying phosphorylation states. In the c-Abl example, a mutant kinase at a zero phosphorylation state was used.
c-Abl Pyruvate Kinase/Lactate Dehydrogenase Coupled Enzyme Assay
In the c-Abl Pyruvate Kinase (PK)/Lactate Dehydrogenase (LDH) Coupled Assay the protein kinase dependant phosphorylation of a substrate peptide was coupled to the oxidation of NADH. The oxidation of NADH to NAD+ was detected by monitoring a decrease in absorbance at 340 nm.
Materials: Abl substrate peptide=EAIYAAPFAKKK-OH (SEQ ID NO: 1) (Biopeptide, San Diego, Calif.); […]NADH (Sigma Cat#N-8129, FW=709.4); 2M MgCl2; 1M HEPES buffer, pH 7.5; Phosphoenolpyruvate (PEP) (Sigma Cat#P-7002, FW=234); Lactate dehydrogenase (LDH) (Worthington Biochemical Cat#2756); Pyruvate Kinase (PK) (Sigma Cat#P-9136); ATP (Sigma Cat#A-3377, FW=551); Greiner 384-well UV star plate; and purified and unphosphorylated T3151 Abl kinase domain.
Stock Solutions: 10 mM NADH (7.09 mg/ml in miliQH2O) made fresh daily; 10 mM Abl substrate peptide (13.4 mg/ml in miliQH2O) stored at −20° C.; 100 mM HEPES buffer, pH 7.5 (5 ml 1M stock+45 ml miliQH2O); 100mM MgCl2 (5 ml 2M MgCl2+95 ml dH2O); 100 mM PEP (23.4 mg/ml in dH2O) stored at −20° C.; 10mM ATP (5.51 mg/ml in dH2O) stored at −20° C. (diluted 50 μl into total of 10 ml miliQH2O daily=50 μM ATP working stock); 1000 U/ml PK (U/mg varies with lot) flash-frozen under liquid N2 and stored at −80° C.; and 1000 U/ml LDH (U/mg varies with lot) flash-frozen under liquid N2 and stored at −80° C.
Standard Assay Setup for 384-well format (50 μl reaction): 300 μM NADH; 10 mM MgCl2; 2 mM PEP; 45 U/ml PK; 60 U/ml LDH; 200 μM Abl substrate peptide; 2.5 μl test compound (in DMSO); 2 μg/ml Abl kinase domain; 10 μM ATP; 100 mM HEPES buffer. Positive controls contained DMSO with no test compound. Negative controls contained 5 μl of 0.5M EDTA (50 mM in the assay). The dephosphorylated form of the c-Abl T315I mutant was used in the biochemical screening assays. The kinase reaction was initiated at time t=0 by the addition of ATP.
Activity was measured by following the time-dependent loss of NADH by absorbance spectroscopy at 340 nm. The linear portion of the resulting progress curve was then analyzed by linear regression to get the activity in absorbance units/time, reported as the slope of that best fit line (moles/unit time can be calculated from using molar extinction coefficient for NADH at 340 nm, 6250M^−1 cm^−1).
Screening data was evaluated using the equation: Z′=1-[3*(σ++σ−)/|μ+−μ−|] (Zhang, et al., 1999 J Biomol Screening 4(2) 67-73), where μ denotes the mean and σ the standard deviation. The subscript designates positive or negative controls. The Z′ score for a robust screening assay should be ≧0.50. The typical threshold=μ+−3*σ+−. Any value that falls below the threshold was designated a “hit”.
Dose response was analyzed using the equation: y=min+{(max−min)/(1+10^[compound]−logIC50)}, where y is the observed initial slope, max=the slope in the absence of inhibitor, min=the slope at infinite inhibitor, and the IC50 is the [compound] that corresponds to ½ the total observed amplitude (Amplitude=max−min).
To measure modulation, activation, or inhibition of Abl KD, a test compound was added to the assay at a range of concentrations. Inhibitors may inhibit Abl KD activity at an IC50 in the micromolar range, the nanomolar range, or, for example, in the subnanomolar range.
An open-reading frame for c-Abl was amplified from a Mus musculus (mouse) cDNA library prepared from freshly harvested mouse liver using a commercially available kit (Invitrogen) by PCR using the following primers: […]
The c-Abl T3151 KD (kinase domain) was purified as follows. […]

Row | ABL_T315I_0P (IC50) | SMILES
1 | B (1.0-0.1 μM) | CN(C)C(=O)C(=O)c1cncc(-c2cnc3[nH]cc(-c4ccc(F)cc4)c3c2Cl)c1 [2-{5-[4-Chloro-3-(4-fluoro-phenyl)-1H-pyrrolo[2,3-b]pyridin-5-yl]-pyridin-3-yl}-N,N-dimethyl-2-oxo-acetamide]
2 | B (1.0-0.1 μM) | CC(C)c1ncncc1-c1c[nH]c2ncc(-c3cncc(C(O)C(=O)N(C)C)c3)c(Cl)c12 (stereo not shown) [2-{5-[4-Chloro-3-(4-isopropyl-pyrimidin-5-yl)-1H-pyrrolo[2,3-b]pyridin-5-yl]-pyridin-3-yl}-2-hydroxy-N,N-dimethyl-acetamide]
3 | A (>1.0 μM) | CSc1c(Br)cnc2[nH]cc(I)c12 [5-Bromo-3-iodo-4-methylsulfanyl-1H-pyrrolo[2,3-b]pyridine]
4 | B (1.0-0.1 μM) | CN(C)C(=O)C(O)c1cncc(-c2cnc3[nH]nc(-c4ccccc4)c3c2Cl)c1 (stereo not shown) [2-[5-(4-Chloro-3-phenyl-1H-pyrazolo[3,4-b]pyridin-5-yl)-pyridin-3-yl]-2-hydroxy-N,N-dimethyl-acetamide]
5 | B (1.0-0.1 μM) | COc1ccccc1-c1c[nH]c2ncc(Br)c(NCCO)c12 [2-[5-Bromo-3-(2-methoxy-phenyl)-1H-pyrrolo[2,3-b]pyridin-4-ylamino]-ethanol]
6 | B (1.0-0.1 μM) | COc1ccccc1-c1c[nH]c2ncc(-c3cncc(C(O)C(=O)N(C)C)c3)c(N(C)C)c12 (stereo not shown) [2-{5-[4-Dimethylamino-3-(2-methoxy-phenyl)-1H-pyrrolo[2,3-b]pyridin-5-yl]-pyridin-3-yl}-2-hydroxy-N,N-dimethyl-acetamide]
7 | B (1.0-0.1 μM) | CN(C)C(=O)C(O)c1cncc(-c2cnc3[nH]nc(-c4ccccc4F)c3c2Cl)c1 (stereo not shown) [2-{5-[4-Chloro-3-(2-fluoro-phenyl)-1H-pyrazolo[3,4-b]pyridin-5-yl]-pyridin-3-yl}-2-hydroxy-N,N-dimethyl-acetamide]
8 | C (0.1-0.01 μM) | COc1ccccc1-c1c[nH]c2ncc(Br)c(Cl)c12 [5-Bromo-4-chloro-3-(2-methoxy-phenyl)-1H-pyrrolo[2,3-b]pyridine]
9 | C (0.1-0.01 μM) | COc1cc(C#N)ccc1-c1c[nH]c2ncc(-c3cnc(N)c(C(=O)N(C)C)c3)c(Cl)c12 [2-Amino-5-[4-chloro-3-(4-cyano-2-methoxy-phenyl)-1H-pyrrolo[2,3-b]pyridin-5-yl]-N,N-dimethyl-nicotinamide]
10 | B (1.0-0.1 μM) | COc1ccccc1-c1c[nH]c2ncc(-c3cnn(C)c3)c(N)c12 [3-(2-Methoxy-phenyl)-5-(1-methyl-1H-pyrazol-4-yl)-1H-pyrrolo[2,3-b]pyridin-4-ylamine]
